Drawing on article PMC10877925 (Cell Communication and Signaling : CCS, 2024), this text covers Kd for one compound.

For assay [1], the target named is T1, PfEGF1-α (Plasmodium falciparum, UniProt Q8I0P6).
T1 construct: gene PF3D7_1357000; recombinant, pET28a vector, E. coli BL21; immobilised on NTA biosensor for BLI
T1 sequence (Q8I0P6 1-443): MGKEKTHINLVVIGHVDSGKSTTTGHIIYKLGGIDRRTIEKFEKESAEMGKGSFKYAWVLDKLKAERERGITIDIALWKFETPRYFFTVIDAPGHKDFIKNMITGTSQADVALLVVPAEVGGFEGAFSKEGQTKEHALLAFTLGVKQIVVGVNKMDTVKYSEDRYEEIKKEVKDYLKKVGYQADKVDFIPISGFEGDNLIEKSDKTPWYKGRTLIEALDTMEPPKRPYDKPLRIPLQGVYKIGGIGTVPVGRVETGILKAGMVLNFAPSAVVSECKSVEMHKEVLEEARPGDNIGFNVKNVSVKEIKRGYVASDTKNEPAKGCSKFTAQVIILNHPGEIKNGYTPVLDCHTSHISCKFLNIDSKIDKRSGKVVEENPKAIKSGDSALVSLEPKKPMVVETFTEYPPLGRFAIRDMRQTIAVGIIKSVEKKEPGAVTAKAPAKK
Put plainly: bio-layer interferometry. The class given is binding. Background: BLI is a label-free optical method that tracks binding on a fibre tip over time.

The target in assay [2] is T2, PfSpdsyn (Plasmodium falciparum, UniProt Q8II73).
T2 construct: gene PF3D7_1129000; 29-residue N-terminal deletion, pET28a vector, E. coli BL21; immobilised on NTA biosensor for BLI
T2 sequence (Q8II73 30-321): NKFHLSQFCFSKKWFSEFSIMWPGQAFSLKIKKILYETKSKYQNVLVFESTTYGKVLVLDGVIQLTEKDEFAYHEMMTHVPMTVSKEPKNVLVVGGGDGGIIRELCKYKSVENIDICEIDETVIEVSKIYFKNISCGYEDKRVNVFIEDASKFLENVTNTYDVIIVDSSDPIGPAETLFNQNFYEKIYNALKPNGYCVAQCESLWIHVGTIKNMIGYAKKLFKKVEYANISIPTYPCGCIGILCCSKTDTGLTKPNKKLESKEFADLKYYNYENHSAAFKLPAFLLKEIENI
The experiment in a line: bio-layer interferometry. In kind it is binding.

The Kd is the constant that tells how readily two partners part at equilibrium.

As for `CC1=C(O)C(=O)C=C2C1=CC=C1[C@@]2(C)CC[C@@]2(C)[C@@H]3C[C@](C)(C(=O)O)CC[C@]3(C)CC[C@]12C` [Celastrol], the Kd in assay [1] was found to be 243 µM; in assay [2], 67.4 µM.
